Assay results reported in patent US20240390404A1, “ANTI-HUMAN NOROVIRUS AGENT” (KEIO UNIVERSITY, priority 2018, published 2024).
“Also recorded” adds a separate entry of the source.

Tests used:
[1] = system: 2D organoid derived from intestinal stem cells; assay: Cytotoxicity of 2fp-fucose to 2D organoid (Trypan blue staining); assay type: cell-based; conditions: 2fp-fucose 3.0 to 1,000 μM, 7 continuous days, versus no treatment (0 μM)
Source text: The 2D organoid derived from intestinal stem cells refers to a 2D organoid for infection and culture of human diarrhea virus (including norovirus) disclosed in Patent Document 2. According to Patent Document 2, the 2D organoid is “obtained by Step 1 in which human intestinal epithelial stem cells, human intestinal epithelial cells, or a tissue including at least one of these cells is subjected to 3-dimensional culturing on the extracellular matrix, to thereby obtain a 3D organoid; and by Step 2 in which the above-obtained 3D organoid is dispersed to prepare single cells; the single cells are subjected to monolayer culturing on an extracellular matrix; and there is obtained a 2D organoid having a single-layer structure of the epithelial cells for forming the human intestinal cavity which include differentiated trophoblastic cells and caliciform cells.” By virtue of the 2D organoid, culturing human norovirus, which was not previously achieved, can be successfully performed.
The aforementioned 3D organoid is degraded by use of, for example, TrypLE™ Express (product of Thermo Fisher SCIENTIFIC), to thereby yield single cells. […]
The 2D organoid was treated with 2fp-fucose (3.0 to 1,000 μM) for 7 continuous days. In each case, the number of dead cells was determined through Trypan blue staining. […]

VLP of norovirus GII. 4 = assay: Binding of AF488-labeled VLPs of norovirus GII.4 to the surface of 2fp-fucose-treated 2D organoid; assay type: cell-based, human norovirus; conditions: 2fp-fucose 0, 8, 40, 200, 1,000 μM, 4 treatment days
Description: In the Example, a nucleotide sequence (AB447456) encoding a structural protein domain of norovirus GII. 4 was incorporated into a baculovirus, and the sequence was expressed in insect cells (SF9 cells). The expression product was used in the Example.
Separately, VLPs of norovirus GII. 4 were labeled with AF488 (Alexa Fluor 488; green phosphor) and purified. The thus-prepared labeled VLPs were added to the 2fp-fucose-treated 2D organoid, and a state of binding of VLPs to the surface of the 2fp-fucose-treated 2D organoid was observed. Similar to the case of UEA-1, the 2fp-fucose concentration in the treatment was 0, 8, 40, 200, and 1,00 0 μM (for 4 treatment days). […] When the 2fp-fucose concentration exceeded 40 μM, definite reduction in VLP adsorption on the surface of 2D organoid was observed (FIG. 3(b)). FIG. 3(b) includes monochrome photographic images.

[2] = system: human norovirus GII.3 (TCH2004 strain); assay: Human norovirus proliferation inhibition in 2D organoid after 2fp-fucose treatment, GII.3 strain; assay type: cell-based; conditions: 3 days treatment before infection, days 3 and 6 after infection
Description: Feces of a human norovirus-infected patent contains a large amount of infectious human norovirus. Thus, the feces of a human norovirus-infected patient is suspended in distilled water or the like to a final concentration of about 10%, to thereby prepare a “10% feces suspension.” The 10% feces suspension is about 10-fold diluted with an ENRA medium. The diluted suspension is added to each of the aforementioned wells having the 2D organoid (5 μL/well) and subjected to incubation for about 3 hours, to thereby proliferate human norovirus. As a result of verification, it has been confirmed that human norovirus proliferates to about 100,000 times the initial count through the culture system employing the 2D organoid.
In the Example, there were tested strains of human norovirus obtained from feces of human norovirus infection patients through the aforementioned procedure and stocked before the test. Specifically, three strains belonging to the genetic group 2 (GII) which accounts for 80 to 90% of the infected patients were selected as test targets. The isolated strain lineages included in GII (FIG. 1) were GII. 6 belonging to “Lineage 1,” GII. […]
The effect of 2fp-fucose treatment on proliferation of human norovirus was investigated for each lineage of norovirus. […] 4, and the viral proliferation amount was determined on days 3 and 6 after infection (FIG. 4).

SMILES: CC(=O)OC1O[C@@H](C)[C@@H](OC(C)=O)[C@@H](OC(C)=O)[C@@H]1F (stereo partly drawn) [2fp-fucose, (3S,4R,5R,6S)-3-fluoro-6-methyltetrahydro-2H-pyran-2,4,5-triyl triacetate]
- cell viability (number of dead cells, Trypan blue staining) [1]: no significant difference was observed in cell viability; also recorded: no effect on cell viability was confirmed
- VLP binding amount on the surface of 2D organoid (VLP of norovirus GII. 4): decrease in a concentration-dependent manner
- concentration of complete viral proliferation inhibition [2]: ≥ 40 µM
